For assay [1], the system named is NIH3T3. Description: Minimum inhibitory concentration for the inhibition of transformation in ras- transformed cells(ras/ NIH3T3). The format is functional. As to conditions: Mus musculus.
The test system of assay [2] is NIH3T3. The assay is described as follows: Minimum inhibitory concentration for the inhibition of transformation in ras- transformed cells(ras/ NIH3T3); Not effective at the highest concentration tested (100 uM). The settings on record: Mus musculus. The format is functional, cell-based.

SMILES strings stand for the structures. In brackets after ≈: the same amount, converted by molar mass.

By MIC is commonly meant the least concentration at which growth counts as inhibited. For `O=C(CCCC/C=C\c1ccccc1NS(=O)(=O)c1ccccc1)NO`, the MIC in the assay on NIH3T3 [1] was 17 µM (≈ 6.37 µg/mL). In the assay on NIH3T3 [1], `O=C(/C=C/C#Cc1cccc(NS(=O)(=O)c2ccc([N+](=O)[O-])cc2)c1)NO` returned an MIC of 0.64 µM (≈ 0.248 µg/mL). Still for that read-out and setting: with `Cc1ccc(S(=O)(=O)Nc2cccc(C#C/C=C/C(=O)NO)c2)cc1` the figure was 0.16 µM (≈ 0.057 µg/mL). The same measure, in the same setting: with `O=C(/C=C/C=C/c1cccc(NS(=O)(=O)c2ccccc2)c1)NO` the figure was 0.3 µM (≈ 0.103 µg/mL); with `O=C(/C=C/C=C/c1cc2ccccc2cc1NS(=O)(=O)c1ccccc1)NO`, 0.32 µM (≈ 0.126 µg/mL). On to `O=C(/C=C/C=C/c1cc2ccccc2n1S(=O)(=O)c1ccccc1)NO`, for which, in the assay with NIH3T3 [1], the minimal inhibitory concentration (MIC) was found to be 0.4 µM (≈ 0.147 µg/mL). The same measure, in the same setting: the figure for `O=C(/C=C/C=C/c1ccc(NS(=O)(=O)c2ccccc2)cc1)NO` is 1.6 µM (≈ 0.551 µg/mL); for `O=C(CCCC/C=C/c1ccccc1NS(=O)(=O)c1ccccc1)NO` it is 4.3 µM (≈ 1.61 µg/mL); for `CN(c1cccc(/C=C/C=C/C(=O)NO)c1)S(=O)(=O)c1ccccc1` it is 0.6 µM (≈ 0.215 µg/mL). `O=C(/C=C/C#Cc1cccc(NS(=O)(=O)c2ccc(Br)cc2)c1)NO` returned an MIC with NIH3T3 [1] of 0.16 µM (≈ 0.0674 µg/mL). On the same count and under the same terms, with `CN(c1ccccc1/C=C/C=C/C(=O)NO)S(=O)(=O)c1ccccc1` the figure was 0.8 µM (≈ 0.287 µg/mL); with `O=C(/C=C/C#Cc1cccc(NS(=O)(=O)c2ccc(F)cc2)c1)NO`, 0.08 µM (≈ 0.0288 µg/mL); with `O=C(/C=C/C#Cc1cccc(NS(=O)(=O)c2ccc3ccccc3c2)c1)NO`, 0.08 µM (≈ 0.0314 µg/mL). Turning to `O=C(/C=C/C=C/c1ccccc1NS(=O)(=O)c1ccccc1)NO`, inhibition of growth against NIH3T3 [1] (MIC) required 1.6 µM (≈ 0.551 µg/mL). As to `COc1ccc(S(=O)(=O)Nc2cccc(C#C/C=C/C(=O)NO)c2)cc1`, it took 0.08 µM (≈ 0.0298 µg/mL) to inhibit growth against NIH3T3 [1] (MIC). Regarding `O=C(/C=C/C#CC#Cc1cccc(NS(=O)(=O)c2ccccc2)c1)NO`, the MIC result with NIH3T3 [2] was “Not effective at the highest concentration tested (100 uM)”.

(Values after ChEMBL document CHEMBL1129242, “(2E)-5-[3-[(phenylsulfonyl)amino]phenyl]-pent-2-en-4-ynohydroxamic acid and its derivatives as novel and potent inhibitors of ras transformation” (1996).)
